# Assay results: patent publication US8168197B2, “External composition for skin containing Scrophularia buergeriana miq. extract and the use thereof for the skin moisturizing cosmetics” (Amorepacific Corporation, priority 2007, dated 2012)
# Tested on: human skin
# Assay: Production of epidermal lipid (total ceramide) on human skin
# Type: in vivo
# Conditions: 5% test material, 20 μl on human forearm
# Description: In order to evaluate the effects of the Scrophularia buergeriana Miq. and Poria cocos Wolf extracts on an increase in the synthesis of lipid on the human skin, the following test was carried out. The composition of the test material consisted of 0.5% of Carbopol ETD 2020, 0.45% of TEA 0.45%, 5% test material and the balance of deionized water. On the forearm of each of 12 adult men and women, a region having a size corresponding to the size of a 50-ml polypropylene conical tube was marked, and then 20 μl of each of control groups, the Scrophularia buergeriana Miq. extract and the Scrophularia buergeriana Miq. extract/Poria cocos Wolf extract mixture was applied on the subjects. Herein, the subjects were divided into two groups, lipids were extracted from the subjects at day 3 and day 11 in the following manner, and the extracted lipid were analyzed. Specifically, the forearm was washed with service water, and then subjected to tape stripping one time with Scotch® 810 Magic tape. Then, 1 ml of a mixture of cyclohexane/ethanol (4:1) was added to the forearm using a 50-ml cut polypropylene conical tube as a reservoir and shaken for about 1 minute, and was then transferred into a fresh tube. […]
# After the TLC plate was developed, the size of each band was measured at a wavelength of 570 nm using a TLC Scanner-II densitometer (CAMAG). […]
smiles,measurement,setting,value
OCC(O)CO [Glycerin],"production of ceramide relative to the untreated group taken as 100%, 3 days after treatment",3 days after treatment,102%
same,"production of ceramide relative to the untreated group taken as 100%, 11 days after treatment",11 days after treatment,94%
